≈ marks a conversion by molar mass, not a printed value.
Assays:
Format in all cases: cell-based
[1] = system: P. falciparum 3D7 (chloroquine-sensitive); experiment: Anti-malarial activity, P. falciparum 3D7 culture, 72 hour, DNA content by flow cytometry; conditions: Plasmodium falciparum, 3D7, 72 h, synchronized ring-stage parasites
Method: Numerous compounds were screened in cultures of the malaria parasite P. falciparum 3D7 (chloroquine-sensitive) and DD2 (chloroquine-resistant). The compounds were also screened for toxixcity against 3T3 cells, HepG2 cells, and in a hemolysis assay. In brief, P. falciparum parasites were cultured in RPMI 1640 (Invitrogen) supplemented with Albumax II (Invitrogen). For synchronization, schizont stage parasites were magnet purified using a SuperMACS™ II Cell Separation Unit (Miltenyi Biotech). For IC50 determinations, synchronized ring-stage parasites were plated at 0.5% parasitemia and 8% hematocrit in 96-well plates at a total volume of 50 μL. Serial dilutions of 2× concentration of the respective compound, ranging from 2.5 μM to 20 nM, were added to the wells to bring the total volume up to 100 μL and 4% hematocrit. Compounds were assayed for a 72 hour period, after which the cultures were fixed with a solution of 4% paraformaldehyde and 0.08% glutaraldhyde in PBS. The cells were then permeabilized with 0.25% Triton X-100, and SYTOX Green Nucleic Acid Stain (Invitrogen) in PBS was added to a final concentration of 5 μM. DNA content, as an indicator of parasitemia, was analyzed on an Accuri C6 Flow Cytometer with C-Sampler. IC50 curves were generated using GraphPad Prism (GraphPad Software).

[2] = Cytotoxicity against 3T3 cells; conditions: mouse, 3T3 cells; read-out: Cytotoxicity 3T3 EC50
[3] = Cytotoxicity against HepG2 cells; conditions: human, HepG2 cells; read-out: Cytotoxicity HepG2 EC50
[4] = in vitro

Compound	IC50 [1]	EC50 [2]	EC50 [3]	EC50 [4]
CC(=O)Nc1cc(C(F)(F)F)cc(NC(=O)c2cc(C(=O)Nc3cc(C(F)(F)F)cc(N)c3SCCN)ncn2)c1SCCN [Compound 203]	0.085 µM	15 µM	45 µM	66 µg/mL (≈ 97.5 µM)
CN1CC[C@@H](Oc2ccc(NC(=O)c3cc(C(=O)Nc4ccc(O[C@@H]5CCN(C)C5)c(C(F)(F)F)c4)ncn3)cc2C(F)(F)F)C1 [Compound 204]	0.103 µM	477 µM	483 µM	88 µg/mL (≈ 135 µM)
O=C(Nc1ccc(O[C@@H]2CCNC2)c(Cl)c1)c1cc(C(=O)Nc2ccc(O[C@@H]3CCNC3)c(Cl)c2)ncn1 [Compound 205]	0.07 µM	40 µM	307 µM	176 µg/mL (≈ 316 µM)
N#Cc1cc(NC(=O)c2cc(C(=O)Nc3ccc(O[C@@H]4CCNC4)c(C#N)c3)ncn2)ccc1O[C@@H]1CCNC1 [Compound 206]	0.179 µM	> 1000 µM	> 1000 µM	> 1000 µg/mL
O=C(Nc1ccc(O[C@H]2CCNC2)cc1)c1cc(C(=O)Nc2ccc(O[C@H]3CCNC3)cc2)ncn1 [Compound 207]	0.182 µM	478 µM	819 µM	29 µg/mL (≈ 59.4 µM)
O=C(Nc1ccc(C2CCNCC2)cc1)c1cc(C(=O)Nc2ccc(C3CCNCC3)cc2)ncn1 [Compound 208]	0.139 µM	122 µM	183 µM	12 µg/mL (≈ 24.8 µM)
O=C(Nc1ccc(OC2CCNCC2)nc1)c1cc(C(=O)Nc2ccc(OC3CCNCC3)nc2)ncn1 [Compound 214]	> 0.1 µM	> 1000 µM	> 1000 µM	> 1000 µg/mL
O=C(Nc1ccc(O[C@@H]2CCNC2)nc1)c1cc(C(=O)Nc2ccc(O[C@@H]3CCNC3)nc2)ncn1 [Compound 215]	> 0.1 µM	> 1000 µM	> 1000 µM	> 1000 µg/mL
CN(C)C1CCN(c2ccc(NC(=O)c3cccc(C(=O)Nc4ccc(N5CCC(N(C)C)CC5)cc4)n3)cc2)CC1 [Compound 216]	> 0.1 µM	> 1000 µM	> 1000 µM	> 1000 µg/mL
CN(C)C1CCN(c2ccc(NC(=O)c3ccnc(C(=O)Nc4ccc(N5CCC(N(C)C)CC5)cc4)c3)cc2)CC1 [Compound 217]	> 0.1 µM	> 1000 µM	> 1000 µM	> 1000 µg/mL
N=C(N)NCCc1cccc(-c2cc(-c3cccc(CCNC(=N)N)c3)ncn2)c1 [Compound 221]	0.08 µM	> 1000 µM	> 1000 µM	> 1000 µg/mL
N=C(N)NCCSc1nc(-c2cccc(CCNC(=N)N)c2)cc(-c2cccc(CCNC(=N)N)c2)n1 [Compound 222]	0.551 µM	764 µM	> 1000 µM	> 1000 µg/mL
NCCCc1cccc(-c2cncc(-c3ccc(-c4cncc(-c5cccc(CCCN)c5)c4)s3)c2)c1 [Compound 232]	0.273 µM	37 µM	56 µM	6 µg/mL (≈ 11.9 µM)
N=C(N)NCCCc1cccc(-c2cncc(-c3ccc(-c4cncc(-c5cccc(CCCNC(=N)N)c5)c4)s3)c2)c1 [Compound 233]	0.737 µM	61 µM	88 µM	2 µg/mL (≈ 3.4 µM)
N=C(N)NCCc1ccc(-c2ccc(-c3ccc(CCNC(=N)N)cc3)s2)cc1 [Compound 248]	0.003 µM	50 µM	54 µM	24 µg/mL (≈ 59 µM)
c1cc(N2CCNCC2)ccc1-c1ccc(-c2ccc(N3CCNCC3)cc2)s1 [Compound 252]	0.004 µM	> 1000 µM	> 1000 µM	12 µg/mL (≈ 29.7 µM)
N=C(N)N1CCN(c2ccc(-c3ccc(-c4ccc(N5CCN(C(=N)N)CC5)cc4)s3)cc2)CC1 [Compound 253]	0.107 µM	419 µM	606 µM	8 µg/mL (≈ 16.4 µM)
N=C(N)N1CCN(c2ccc(-c3ccc(-c4ccc(N5CCN(C(=N)N)CC5)nc4)s3)cn2)CC1 [Compound 254]	0.154 µM	32 µM	49 µM	36 µg/mL (≈ 73.4 µM)
